ChEMBL document CHEMBL3797052 (Eur J Med Chem, 2016)

Test system: not listed separately
Assay: Antiproliferative activity against human HL-60(TB) cells assessed as cell growth at 10^-5 M after 48 hrs by sulforhodamine B assay
Assay type: functional
Conditions: HL-60, 48 h, read-out: Activity

Structure (SMILES)	growth at 10 µM [%]
CNC(=O)c1cc(Oc2ccc3nc(NC(=O)Nc4ccc(C(F)(F)F)cc4)sc3c2)ccn1	120

Test system: HT-29
Assay: Antiproliferative activity against human HT-29 cells assessed as cell growth at 10^-5 M after 48 hrs by sulforhodamine B assay
Assay type: functional
Conditions: HT-29, 48 h, read-out: Activity

Structure (SMILES)	growth at 10 µM [%]
CNC(=O)c1cc(Oc2ccc3nc(NC(=O)Nc4ccc(C(F)(F)F)cc4)sc3c2)ccn1	78.4

Test system: not listed separately
Assay: Antiproliferative activity against human COLO205 cells assessed as cell growth at 10^-5 M after 48 hrs by sulforhodamine B assay
Assay type: functional
Conditions: COLO 205, 48 h, read-out: Activity

Structure (SMILES)	growth at 10 µM [%]
CNC(=O)c1cc(Oc2ccc3nc(NC(=O)Nc4ccc(C(F)(F)F)cc4)sc3c2)ccn1	58.8

Test system: KM12
Assay: Antiproliferative activity against human KM12 cells assessed as cell growth at 10^-5 M after 48 hrs by sulforhodamine B assay
Assay type: functional
Conditions: KM12, 48 h, read-out: Activity

Structure (SMILES)	growth at 10 µM [%]
CNC(=O)c1cc(Oc2ccc3nc(NC(=O)Nc4ccc(C(F)(F)F)cc4)sc3c2)ccn1	65

Test system: not listed separately
Assay: Antiproliferative activity against human HCT15 cells assessed as cell growth at 10^-5 M after 48 hrs by sulforhodamine B assay
Assay type: functional
Conditions: HCT-15, 48 h, read-out: Activity

Structure (SMILES)	growth at 10 µM [%]
CNC(=O)c1cc(Oc2ccc3nc(NC(=O)Nc4ccc(C(F)(F)F)cc4)sc3c2)ccn1	54.2

Test system: not listed separately
Assay: Antiproliferative activity against human HCT116 cells assessed as cell growth at 10^-5 M after 48 hrs by sulforhodamine B assay
Assay type: functional
Conditions: HCT-116, 48 h, read-out: Activity

Structure (SMILES)	growth at 10 µM [%]
CNC(=O)c1cc(Oc2ccc3nc(NC(=O)Nc4ccc(C(F)(F)F)cc4)sc3c2)ccn1	7.67

Test system: not listed separately
Assay: Cytotoxicity against human HCT116 cells assessed as growth inhibition at 10 uM after 2 days by MTT assay
Assay type: functional
Conditions: HCT-116, 48 h, read-out: GI

Structure (SMILES)	inhibition of growth at 10 µM [%]
CNC(=O)c1cc(Oc2ccc3nc(NC(=O)Nc4ccc(C(F)(F)F)cc4)sc3c2)ccn1	64.8

Test system: not listed separately
Assay: Antiproliferative activity against human HOP92 cells assessed as cell growth at 10^-5 M after 48 hrs by sulforhodamine B assay
Assay type: functional
Conditions: HOP-92, 48 h, read-out: Activity

Structure (SMILES)	growth at 10 µM [%]
CNC(=O)c1cc(Oc2ccc3nc(NC(=O)Nc4ccc(C(F)(F)F)cc4)sc3c2)ccn1	74.4

Test system: not listed separately
Assay: Antiproliferative activity against human OVCAR4 cells assessed as cell growth at 10^-5 M after 48 hrs by sulforhodamine B assay
Assay type: functional
Conditions: OVCAR-4, 48 h, read-out: Activity

Structure (SMILES)	growth at 10 µM [%]
CNC(=O)c1cc(Oc2ccc3nc(NC(=O)Nc4ccc(C(F)(F)F)cc4)sc3c2)ccn1	37.7

Test system: not listed separately
Assay: Antiproliferative activity against human SNB19 cells assessed as cell growth at 10^-5 M after 48 hrs by sulforhodamine B assay
Assay type: functional
Conditions: SNB-19, 48 h, read-out: Activity

Structure (SMILES)	growth at 10 µM [%]
CNC(=O)c1cc(Oc2ccc3nc(NC(=O)Nc4ccc(C(F)(F)F)cc4)sc3c2)ccn1	79.3

Test system: not listed separately
Assay: Cytotoxicity against human SKBR3 cells assessed as growth inhibition at 10 uM after 2 days by MTT assay
Assay type: functional
Conditions: SK-BR-3, 48 h, read-out: GI

Structure (SMILES)	inhibition of growth at 10 µM [%]
CNC(=O)c1cc(Oc2ccc3nc(NC(=O)Nc4ccc(C(F)(F)F)cc4)sc3c2)ccn1	69.9

Test system: NCI-H322M
Assay: Antiproliferative activity against human NCI-H322M cells assessed as cell growth at 10^-5 M after 48 hrs by sulforhodamine B assay
Assay type: functional
Conditions: read-out: Activity

Structure (SMILES)	growth at 10 µM [%]
CNC(=O)c1cc(Oc2ccc3nc(NC(=O)Nc4ccc(C(F)(F)F)cc4)sc3c2)ccn1	80.5

Test system: not listed separately
Assay: Antiproliferative activity against human Hs 578T cells assessed as cell growth at 10^-5 M after 48 hrs by sulforhodamine B assay
Assay type: functional
Conditions: read-out: Activity

Structure (SMILES)	growth at 10 µM [%]
CNC(=O)c1cc(Oc2ccc3nc(NC(=O)Nc4ccc(C(F)(F)F)cc4)sc3c2)ccn1	30

Test system: MDA-MB-468
Assay: Antiproliferative activity against human MDA-MB-468 cells assessed as cell growth at 10^-5 M after 48 hrs by sulforhodamine B assay
Assay type: functional
Conditions: MDA-MB-468, 48 h, read-out: Activity

Structure (SMILES)	growth at 10 µM [%]
CNC(=O)c1cc(Oc2ccc3nc(NC(=O)Nc4ccc(C(F)(F)F)cc4)sc3c2)ccn1	49.9

Test system: SK-MEL-2
Assay: Antiproliferative activity against human SK-MEL-2 cells assessed as cell growth at 10^-5 M after 48 hrs by sulforhodamine B assay
Assay type: functional
Conditions: SK-MEL-2, 48 h, read-out: Activity

Structure (SMILES)	growth at 10 µM [%]
CNC(=O)c1cc(Oc2ccc3nc(NC(=O)Nc4ccc(C(F)(F)F)cc4)sc3c2)ccn1	92.9

Test system: not listed separately
Assay: Antiproliferative activity against human DU145 cells assessed as cell growth at 10^-5 M after 48 hrs by sulforhodamine B assay
Assay type: functional
Conditions: DU-145, 48 h, read-out: Activity

Structure (SMILES)	growth at 10 µM [%]
CNC(=O)c1cc(Oc2ccc3nc(NC(=O)Nc4ccc(C(F)(F)F)cc4)sc3c2)ccn1	48.9

Test system: not listed separately
Assay: Antiproliferative activity against human RPMI8226 cells assessed as cell growth at 10^-5 M after 48 hrs by sulforhodamine B assay
Assay type: functional
Conditions: RPMI-8226, 48 h, read-out: Activity

Structure (SMILES)	growth at 10 µM [%]
CNC(=O)c1cc(Oc2ccc3nc(NC(=O)Nc4ccc(C(F)(F)F)cc4)sc3c2)ccn1	70.4

Test system: not listed separately
Assay: Antiproliferative activity against human HCC2998 cells assessed as cell growth at 10^-5 M after 48 hrs by sulforhodamine B assay
Assay type: functional
Conditions: HCC 2998, 48 h, read-out: Activity

Structure (SMILES)	growth at 10 µM [%]
CNC(=O)c1cc(Oc2ccc3nc(NC(=O)Nc4ccc(C(F)(F)F)cc4)sc3c2)ccn1	104

Test system: not listed separately
Assay: Cytotoxicity against human SKBR3 cells assessed as growth inhibition at 100 uM after 2 days by MTT assay
Assay type: functional
Conditions: SK-BR-3, 48 h, read-out: GI

Structure (SMILES)	inhibition of growth at 100 µM [%]
CNC(=O)c1cc(Oc2ccc3nc(NC(=O)Nc4ccc(C(F)(F)F)cc4)sc3c2)ccn1	79.6

Test system: not listed separately
Assay: Antiproliferative activity against human HOP62 cells assessed as cell growth at 10^-5 M after 48 hrs by sulforhodamine B assay
Assay type: functional
Conditions: HOP-62, 48 h, read-out: Activity

Structure (SMILES)	growth at 10 µM [%]
CNC(=O)c1cc(Oc2ccc3nc(NC(=O)Nc4ccc(C(F)(F)F)cc4)sc3c2)ccn1	67.3

Test system: not listed separately
Assay: Cytotoxicity against human HCT116 cells assessed as growth inhibition at 100 uM after 2 days by MTT assay
Assay type: functional
Conditions: HCT-116, 48 h, read-out: GI

Structure (SMILES)	inhibition of growth at 100 µM [%]
CNC(=O)c1cc(Oc2ccc3nc(NC(=O)Nc4ccc(C(F)(F)F)cc4)sc3c2)ccn1	74.9

Test system: not listed separately
Assay: Antiproliferative activity against human UACC62 cells assessed as cell growth at 10^-5 M after 48 hrs by sulforhodamine B assay
Assay type: functional
Conditions: UACC-62, 48 h, read-out: Activity

Structure (SMILES)	growth at 10 µM [%]
CNC(=O)c1cc(Oc2ccc3nc(NC(=O)Nc4ccc(C(F)(F)F)cc4)sc3c2)ccn1	56

Test system: not listed separately
Assay: Antiproliferative activity against human UO31 cells assessed as cell growth at 10^-5 M after 48 hrs by sulforhodamine B assay
Assay type: functional
Conditions: UO-31, 48 h, read-out: Activity

Structure (SMILES)	growth at 10 µM [%]
CNC(=O)c1cc(Oc2ccc3nc(NC(=O)Nc4ccc(C(F)(F)F)cc4)sc3c2)ccn1	65

Test system: not listed separately
Assay: Antiproliferative activity against human OVCAR8 cells assessed as cell growth at 10^-5 M after 48 hrs by sulforhodamine B assay
Assay type: functional
Conditions: OVCAR-8, 48 h, read-out: Activity

Structure (SMILES)	growth at 10 µM [%]
CNC(=O)c1cc(Oc2ccc3nc(NC(=O)Nc4ccc(C(F)(F)F)cc4)sc3c2)ccn1	48.5

Test system: MDA-MB-435
Assay: Antiproliferative activity against human MDA-MB-435 cells assessed as cell growth at 10^-5 M after 48 hrs by sulforhodamine B assay
Assay type: functional
Conditions: MDA-MB-435, 48 h, read-out: Activity

Structure (SMILES)	growth at 10 µM [%]
CNC(=O)c1cc(Oc2ccc3nc(NC(=O)Nc4ccc(C(F)(F)F)cc4)sc3c2)ccn1	40.9

Test system: SK-MEL-28
Assay: Antiproliferative activity against human SK-MEL-28 cells assessed as cell growth at 10^-5 M after 48 hrs by sulforhodamine B assay
Assay type: functional
Conditions: SK-MEL-28, 48 h, read-out: Activity

Structure (SMILES)	growth at 10 µM [%]
CNC(=O)c1cc(Oc2ccc3nc(NC(=O)Nc4ccc(C(F)(F)F)cc4)sc3c2)ccn1	68.9

Test system: not listed separately
Assay: Antiproliferative activity against human BT549 cells assessed as cell growth at 10^-5 M after 48 hrs by sulforhodamine B assay
Assay type: functional
Conditions: BT-549, 48 h, read-out: Activity

Structure (SMILES)	growth at 10 µM [%]
CNC(=O)c1cc(Oc2ccc3nc(NC(=O)Nc4ccc(C(F)(F)F)cc4)sc3c2)ccn1	62.3

Test system: T47D
Assay: Antiproliferative activity against human T47D cells assessed as cell growth at 10^-5 M after 48 hrs by sulforhodamine B assay
Assay type: functional
Conditions: read-out: Activity

Structure (SMILES)	growth at 10 µM [%]
CNC(=O)c1cc(Oc2ccc3nc(NC(=O)Nc4ccc(C(F)(F)F)cc4)sc3c2)ccn1	44.8

Test system: not listed separately
Assay: Antiproliferative activity against human Caki1 cells assessed as cell growth at 10^-5 M after 48 hrs by sulforhodamine B assay
Assay type: functional
Conditions: CAKI-1, 48 h, read-out: Activity

Structure (SMILES)	growth at 10 µM [%]
CNC(=O)c1cc(Oc2ccc3nc(NC(=O)Nc4ccc(C(F)(F)F)cc4)sc3c2)ccn1	92

Test system: NCI-H522
Assay: Antiproliferative activity against human NCI-H522 cells assessed as cell growth at 10^-5 M after 48 hrs by sulforhodamine B assay
Assay type: functional
Conditions: NCI-H522, 48 h, read-out: Activity

Structure (SMILES)	growth at 10 µM [%]
CNC(=O)c1cc(Oc2ccc3nc(NC(=O)Nc4ccc(C(F)(F)F)cc4)sc3c2)ccn1	42.4

Test system: not listed separately
Assay: Antiproliferative activity against human SF539 cells assessed as cell growth at 10^-5 M after 48 hrs by sulforhodamine B assay
Assay type: functional
Conditions: SF-539, 48 h, read-out: Activity

Structure (SMILES)	growth at 10 µM [%]
CNC(=O)c1cc(Oc2ccc3nc(NC(=O)Nc4ccc(C(F)(F)F)cc4)sc3c2)ccn1	82.2

Test system: not listed separately
Assay: Antiproliferative activity against human LOXIMVI cells assessed as cell growth at 10^-5 M after 48 hrs by sulforhodamine B assay
Assay type: functional
Conditions: LOX IMVI, read-out: Activity

Structure (SMILES)	growth at 10 µM [%]
CNC(=O)c1cc(Oc2ccc3nc(NC(=O)Nc4ccc(C(F)(F)F)cc4)sc3c2)ccn1	48.1

Test system: not listed separately
Assay: Antiproliferative activity against human SF268 cells assessed as cell growth at 10^-5 M after 48 hrs by sulforhodamine B assay
Assay type: functional
Conditions: SF-268, 48 h, read-out: Activity

Structure (SMILES)	growth at 10 µM [%]
CNC(=O)c1cc(Oc2ccc3nc(NC(=O)Nc4ccc(C(F)(F)F)cc4)sc3c2)ccn1	65

Test system: K562
Assay: Antiproliferative activity against human K562 cells assessed as cell growth at 10^-5 M after 48 hrs by sulforhodamine B assay
Assay type: functional
Conditions: K562, 48 h, read-out: Activity

Structure (SMILES)	growth at 10 µM [%]
CNC(=O)c1cc(Oc2ccc3nc(NC(=O)Nc4ccc(C(F)(F)F)cc4)sc3c2)ccn1	76.3

Test system: not listed separately
Assay: Antiproliferative activity against human SW620 cells assessed as cell growth at 10^-5 M after 48 hrs by sulforhodamine B assay
Assay type: functional
Conditions: SW-620, 48 h, read-out: Activity

Structure (SMILES)	growth at 10 µM [%]
CNC(=O)c1cc(Oc2ccc3nc(NC(=O)Nc4ccc(C(F)(F)F)cc4)sc3c2)ccn1	37.9

Test system: A498
Assay: Antiproliferative activity against human A498 cells assessed as cell growth at 10^-5 M after 48 hrs by sulforhodamine B assay
Assay type: functional
Conditions: A498, 48 h, read-out: Activity

Structure (SMILES)	growth at 10 µM [%]
CNC(=O)c1cc(Oc2ccc3nc(NC(=O)Nc4ccc(C(F)(F)F)cc4)sc3c2)ccn1	98.8

Test system: Malme-3M
Assay: Antiproliferative activity against human MALME-3M cells assessed as cell growth at 10^-5 M after 48 hrs by sulforhodamine B assay
Assay type: functional
Conditions: read-out: Activity

Structure (SMILES)	growth at 10 µM [%]
CNC(=O)c1cc(Oc2ccc3nc(NC(=O)Nc4ccc(C(F)(F)F)cc4)sc3c2)ccn1	20.8
